Structures are written as SMILES. Non-standard residues stand in square brackets, D forms with d. Residues, ends and D or L forms follow the SMILES beside them.

Format in all cases: biochemical
One experiment concerns the target T1, Aβ(1–42) oligomers (Homo sapiens, UniProt P05067).
T1 construct: Aβ(1–42), N-terminally biotinylated Aβ(1–42) and FITC-Aβ(1–42) were purchased from Bachem; purchased Bachem (Heidelberg, Germany)
Kind of experiment: QIAD assay (Aβ oligomer elimination). Conditions: 20 μM DB3, 80 μM Aβ(1–42) preincubated 4.5 h, 40 min with peptide, density gradient centrifugation, RP-HPLC, vs Aβ only control, triplicate. As to the method:
The quantitative determination of interference with Aβ(1–42) aggregate size distribution (QIAD) was performed as described before. In brief, 80 μM Aβ(1–42) was incubated in 10 mM sodium phosphate buffer, pH 7.4 for 4.5 h at 22°C with 600 rpm agitation. Aβ(1–42) aggregation was continued for an additional 40 min with or without DB peptide. The obtained partial size distribution was analyzed by applying density gradient centrifugation. 100 μl of the incubated sample was placed on top of a gradient with 5 to 50% iodixanol (Optiprep, Axis-shield, Oslo, Norway) and separated at 259.000 x g for 3 h at 4°C using an ultracentrifuge (Optima MAX-XP, Beckman Coulter, Brea, USA). Fourteen fractions of 140 μl were taken from top to bottom. […] For quantification of the Aβ(1–42) amount in each fraction, reversed-phase high performance liquid chromatography (RP-HPLC) was performed using a Zorbax SB-300 C8 column (Agilent, Böblingen, Germany) connected to an Agilent 1260 Infinity system using 30% (v/v) acetonitrile with 0.1% (v/v) trifluoroacetic acid (TFA) as the mobile phase with a flow of 1 ml/min and a column temperature of 80°C. […] The UV absorption at 214 nm was measured. For quantification of the Aβ(1–42) amount, the area under the peak representing Aβ(1–42) was calculated and the molar concentration was determined using a calibration curve. […]

Experiment [1] deals with T2, Aβ(1–42) (Homo sapiens, UniProt P05067).
T2 construct: Aβ(1–42), N-terminally biotinylated Aβ(1–42) and FITC-Aβ(1–42) were purchased from Bachem; purchased Bachem (Heidelberg, Germany)
T2 sequence (P05067 672-713 limits assumed): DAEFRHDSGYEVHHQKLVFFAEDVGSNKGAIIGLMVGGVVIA
Kind of experiment: Aβ aggregation inhibition ELISA. To be noted: 400 nM Aβ(1–42), 500 mM Tris pH 7.4, 23 h, 37°C, aggregate-specific ELISA, logistic fit, three independent experiments; read-out: EC50 of inhibition of Aβ aggregate formation. As to the method:
Freshly dissolved monomeric Aβ(1–42) (400 nM in 500 mM Tris-buffer pH 7.4) was incubated with and without DB peptides in different concentrations (0.01, 0.05, 0.1, 0.5, 1, 5, 10, 50 and 100 μM for DB3 or half of the molar concentrations in case of DB3DB3) in a humidity chamber for 23 h at 37°C. The aggregation was analyzed by an enzyme-linked immunosorbent assay (ELISA). NP27 antibody in bicarbonate/carbonate buffer was used to coat the ELISA plate overnight. Then the plate was washed in PBS-Tween buffer (1x PBS + 0.05% Tween) and blocked for 2 h at room temperature with 5% casein buffer. After washing, Aβ aggregate solutions were added to the plate and incubated for 1 h at room temperature. The plate was washed again and bound Aβ aggregates were detected by biotinylated 6E10/HRP-avidin mediated immunoreaction (BioLegend, San Diego, CA USA) using TMB as detection reagent. […] Mean value and standard error were calculated from three independent experiments. EC50 was calculated by fitting the data to a logistic dose response function.
Fig 5 Inhibition of Aβ fibril formation and Aβ aggregation disassemble by DB3 and DB3DB3. A) Monomeric Aβ(1–42) (400 nM) was mixed with different concentrations of DB3 (0.01, 0.05, 0.1, 0.5, 1, 5, 10, 50, 100 μM) and the aggregation state of Aβ was analyzed using an Aβ aggregate specific ELISA. […] All data were determined in triplicate. […]

In experiment [2] the target is T2, Aβ(1–42). Kind of experiment: Thioflavin T (ThT) fibril formation assay. Conditions: pH 7.4, 20 μM Aβ(1–42), 20 μM peptide (method: 31 μg/ml), 20 μM ThT, 10 mM sodium phosphate pH 7.4, 37°C, compared after 5 h with Aβ(1–42)-only control; read-out: inhibition of Aβ(1–42) fibril formation (ThT fluorescence). Here is the method:
20 μM Aβ(1–42) was mixed with 20 μM Thioflavin T (ThT) and 31 μg/ml DB3 or DB3DB3 in 10 mM sodium phosphate buffer, pH 7.4. The assay was performed using a non-binding 96 well plate (Greiner Bio-One, Frickenhausen, Germany). ThT fluorescence was measured every 15 min at λex = 440 nm and λem = 490 nm in a temperature-controlled plate reader (Polarstar Optima, BMG, Offenburg, Germany) at 37°C with 1 min agitation before every measurement. Each value was background corrected using the ThT fluorescence of a peptide solution without Aβ(1–42). To investigate the influence of DB1 to DB5 on Aβ fibril formation, a Thioflavin T (ThT) assay was performed. In an aqueous environment the benzothiazole dye has a low fluorescence. […] The emission at 490 nm is directly proportional to the quantity of amyloid fibrils. Fibril formation of Aβ can be followed in real time by measuring the ThT fluorescence. Therefore, the inhibitory effects of the D-peptides DB1 to DB5 and D3 were investigated by co-incubating these peptides with Aβ(1–42) and performing the ThT assay. Fluorescence emission data were compared after 5 h incubation, because after this period the Aβ(1–42) control (without added peptide) reached its fluorescence maximum. […] 20 μM Aβ(1–42) was mixed with 20 μM DB1 to DB5 or 10 μM DB3DB3 and the ThT fluorescence was monitored. Aβ(1–42) without peptide addition was taken as the control. The ThT fluorescence of all samples were compared after 5 h, where the control, Aβ(1–42) only, reached its maximum in fluorescence emission. The Mann-Whitney-U-test was used for statistical analysis. * p < 0.05; ** p < 0.01; *** p < 0.001.

T1 sequence (P05067 672-713 limits assumed): as above

Take `CC[C@@H](C)[C@@H](NC(=O)[C@H]1CCCN1C(=O)[C@H](N)CCCNC(=N)N)C(=O)N[C@@H](C(=O)N[C@H](CCCNC(=N)N)C(=O)N[C@H](CC(C)C)C(=O)N[C@H](CCCNC(=N)N)C(=O)N[C@@H](C(=O)N[C@H](Cc1c[nH]cn1)C(=O)N[C@H](CCC(N)=O)C(=O)N[C@H](CC(N)=O)C(=O)N[C@H](CCCNC(=N)N)C(N)=O)[C@H](C)O)[C@H](C)O` [DB3] (H-[dR][dP][dI][dT][dR][dL][dR][dT][dH][dQ][dN][dR]-NH2): the “reduction of the amount of Aβ oligomers” value at Aβ(1–42) oligomers is given as ~ 27%. In addition, the EC50 on Aβ(1–42) [1] came to 6 µM. At Aβ(1–42) [2], the inhibition at 31 µg/mL is 80%.

By EC50 is commonly meant the concentration that produces a half-maximal response. As a reminder, the inhibition is the share of the control response that was lost under treatment.

These data come from paper PMC4841555, “Optimization of the All-D Peptide D3 for Aβ Oligomer Elimination” (PLoS ONE, 2016).
